As a reminder, the clearance is the volume of plasma or blood freed of the substance per unit of time. A higher clearance goes with efficient removal. In general, Tmax refers to the time from dosing to the highest level. What is called half-life is the time in which the quantity being followed falls by half. A high value points to slow decline. Broadly, the bioavailability is the share of a dose that reaches the circulation, judged against a reference dose that is usually intravenous. Lower therefore signals poor availability. As usually defined, the AUC(0-inf) is the area under the concentration-time curve extrapolated to infinity. Read a low AUC(0-inf) as low exposure. As usually defined, the AUC is the area under the concentration-time curve, a measure of exposure. Low values mean less exposure, high ones more exposure. By Cmax is commonly meant the peak of the concentration-time curve. The term EC50 denotes the concentration that produces a half-maximal response. The term CC50 denotes the concentration that lowers cell viability or growth by half. Lower therefore signals harm at low concentration.

Series [1] is described as follows: Clearance in CD-1 mouse at 2 mg/kg,iv measured at 0.083 to 24 hrs post administration by LC-MS/MS analysis. The series is classed as ADME, organism-based. The settings on record: in vivo, time 0.083-24 hrs.
Series [2] in a line: Tmax in CD-1 mouse at 10 mg/kg,po measured at 0.083 to 24 hrs post administration by LC-MS/MS analysis. The series is classed as ADME, organism-based. The conditions noted are these: in vivo, time 0.083-24 hrs.
Series [3] is described as follows: Clearance in CD-1 mouse liver microsomes at 0.3 uM pre-incubated for 10 mins followed by NADPH addition incubated for 60 mins by LC-MS/MS analysis. The conditions noted are these: time 70 min, read-out: CLH. In kind it is ADME, Microsome. A general note: Liver microsomes are vesicles of endoplasmic reticulum, rich in cytochrome P450 enzymes.
Series [4] can be described thus: Drug accumulation in CD-1 mouse liver at 10 mg/kg,po measured at 0.083 to 24 hrs post administration by LC-MS/MS analysis. The conditions noted are these: in vivo, time 0.083-24 hrs. The series is classed as ADME, organism-based.
Series [5] can be described thus: Drug accumulation in Sprague-Dawley rat liver at 10 mg/kg,po measured at 0.083 to 24 hrs post administration by LC-MS/MS analysis. In kind it is ADME, organism-based. The settings on record: in vivo, time 0.083-24 hrs.
Series [6] can be described thus: Half life in CD-1 mouse at 10 mg/kg,po measured at 0.083 to 24 hrs post administration by LC-MS/MS analysis. In kind it is ADME, organism-based. The settings on record: in vivo, time 0.083-24 hrs.
Series [7] in a line: Oral bioavailability in CD-1 mouse at 10 mg/kg measured at 0.083 to 24 hrs by LC-MS/MS analysis. The conditions noted are these: in vivo, time 0.083-24 hrs. The series is classed as ADME, organism-based.
Series [8] is described as follows: Apparent volume of distribution at steady state in CD-1 mouse at 10 mg/kg,po measured at 0.083 to 24 hrs post administration by LC-MS/MS analysis. In kind it is ADME, organism-based. The conditions noted are these: in vivo, time 0.083-24 hrs.
Series [9] can be described thus: AUCinfinity in CD-1 mouse at 10 mg/kg,po measured at 0.083 to 24 hrs post administration by LC-MS/MS analysis. The series is classed as ADME, organism-based. The settings on record: in vivo, time 0.083-24 hrs.
Series [10] can be described thus: AUCinfinity in Sprague-Dawley rat at 10 mg/kg,po measured at 0.083 to 24 hrs post administration by LC-MS/MS analysis. The series is classed as ADME, organism-based. The conditions noted are these: in vivo, po, 10 mg/kg, time 0.083-24 hrs.
A short description of series [11]: Cmax in Sprague-Dawley rat at 10 mg/kg,po measured at 0.083 to 24 hrs post administration by LC-MS/MS analysis. In kind it is ADME, organism-based. The settings on record: in vivo, po, 10 mg/kg, time 0.083-24 hrs.
The nature of series [12]: Half life in Sprague-Dawley rat at 10 mg/kg,po measured at 0.083 to 24 hrs post administration by LC-MS/MS analysis. The conditions noted are these: in vivo, po, 10 mg/kg, time 0.083-24 hrs. In kind it is ADME, organism-based.
The next series deals with Hepatitis B virus. Description: Antiviral activity against HBV infected in human HepG2.2.15 cells assessed as inhibition of HBsAg level incubated for 6 days by microplate-based chemiluminescence immunoassay. The conditions noted are these: HepG2 2.2.15, 144 h. The series is classed as functional, organism-based.
A short description of series [13]: Oral bioavailability in Sprague-Dawley rat at 10 mg/kg measured at 0.083 to 24 hrs by LC-MS/MS analysis. The settings on record: in vivo, po, 10 mg/kg, time 0.083-24 hrs. In kind it is ADME, organism-based.
Series [14] in a line: Tmax in Sprague-Dawley rat at 10 mg/kg,po measured at 0.083 to 24 hrs post administration by LC-MS/MS analysis. In kind it is ADME, organism-based. The settings on record: in vivo, po, 10 mg/kg, time 0.083-24 hrs.
The nature of series [15]: Apparent volume of distribution at steady state in Sprague-Dawley rat at 10 mg/kg,po measured at 0.083 to 24 hrs post administration by LC-MS/MS analysis. The conditions noted are these: in vivo, time 0.083-24 hrs. The series is classed as ADME, organism-based.
The nature of series [16]: Cmax in CD-1 mouse at 10 mg/kg,po measured at 0.083 to 24 hrs post administration by LC-MS/MS analysis. The series is classed as ADME, organism-based. The conditions noted are these: in vivo, time 0.083-24 hrs.
A further series relates to HepG2 2.2.15. Kind of series: Cytotoxicity against human HepG2.2.15 cells by Cell-titer Glo luminescent assay. The series is classed as functional.

`COCCCOc1cc2c(cc1C1CC1)-c1cc(=O)c(C(=O)O)cn1[C@H](C(C)C)CO2` had a clearance in series [1] of 14 mL/min/kg. Also, the Tmax in series [2] is 4.8 h; in series [14], 3.1 h. Also, in series [3], the microsomal CLint at 0.3 µM was determined as 1 µL/min/mg. Also, the Ct in series [4] amounted to 575 ng/g; in series [5] it was 20 ng/g. Moreover, the half-life in series [6] was 0.9 h. The bioavailability in series [7] worked out at 69%. The “Vdss(app)” value turned out to be 0.8 L/kg in series [8] and 0.3 L/kg in series [15]. In [9], this compound showed an AUC(0-inf) of 8410 ng·h/mL. In series [10], this compound came in with an AUC of 3950 ng·h/mL. For the same compound, the Cmax was 488 ng/mL in [11] and 914 ng/mL in [16]. In [12], this compound yielded a t1/2 of 1 h. In addition, the 50% effective concentration (EC50) with Hepatitis B virus was 0.006 µM. The compound also came in with a F in series [13] of 13%. In the series with HepG2 2.2.15, this compound had a CC50 of 42 µM.
`CCc1cc2c(cc1OCCCOC)OC[C@@H](C(C)C)n1cc(C(=O)O)c(=O)cc1-2` gave a clearance in series [1] of 21 mL/min/kg. Moreover, the Tmax turned out to be 2.4 h in [2] and 3.3 h in series [14]. Also, the microsomal CLint at 0.3 µM in series [3] stood at 10 µL/min/mg. In addition, the results for the Ct in series [4] and in [5] were 5 ng/g and 47 ng/g, respectively. In series [6], the half-life was 0.8 h. The bioavailability in series [7] came to 91%. For the same compound, the “Vdss(app)” value in series [8] came out at 1.1 L/kg; in series [15] it was 0.9 L/kg. In series [9], this compound returned an AUC(0-inf) of 7080 ng·h/mL. In series [10], this compound gave an AUC of 2860 ng·h/mL. Further, the Cmax in series [11] was 351 ng/mL; in series [16] it was 844 ng/mL. Further, the t1/2 in series [12] turned out to be 2.7 h. Also, the concentration for a half-maximal effect (EC50) with Hepatitis B virus was determined as 0.006 µM. For the same compound, the F in [13] is reported as 24%. In the series with HepG2 2.2.15, this compound registered a cytotoxic concentration (CC50) of 33 µM.

The record behind these values is ChEMBL document CHEMBL5537169, “Structure-Activity Relationships and Discovery of (S)-6-Isopropyl-2-methoxy-3-(3-methoxypropoxy)-10-oxo-5,10-dihydro-6H-pyrido[1,2-h][1,7]naphthyridine-9-carboxylic Acid (AB-452), a Novel Orally Available HBV RNA Destabilizer” (J Med Chem, 2024).
